Experimental data as given in patent publication US20230227466A1, “SUBSTITUTED THIENOPYRIMIDINES THAT INTERACT WITH THE RAS SUPERFAMILY FOR THE TREATMENT OF CANCERS, INFLAMMATORY DISEASES, RASOPATHIES, AND FIBROTIC DISEASE” (SHY Therapeutics, LLC, priority 2020, published 2023).
Read-outs that look alike come from different tables or passages of the source.

What was measured:
[1] = tested on: MIA-PaCa-2 pancreatic cancer cell line (KRAS G12C); assay: Cell proliferation assay (CellTiter 96 Aqueous One); format: cell-based; conditions: Homo sapiens; for inhibition at 10 µM: MIA PaCa-2, read-out: % inh cell proliferation (10 μM) in MIA PaCa-2
Procedure, shortened: (§1)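 Percent inhibition of proliferation is derived from MTS absorbance data. Cells seeded at 2000–5000 per well were grown overnight before treatment. Compounds, at 10 μM final or in dilution series, stayed on cells for 2–4 days in medium containing 10% FBS and 0.3% DMSO.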

KRas G12D mutant = target: T1, KRas G12D mutant (Homo sapiens, UniProt P01116, G12D); assay: Ras GTP binding domain inhibition assay (labeled-GTP competition, cell-free)
T1 construct: made in house
Procedure, shortened: (§2)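 First, the His-tagged protein was captured overnight at 4° C on nickel wells. Second, compound was applied at 20 μM or as a dilution series for IC50 over 3 h. Third, 100 nM Cy3- or Cy5-GTP was added for 45 min. Finally, wells were washed and bound label quantified.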

KRas Q61H mutant = target: T2, KRas Q61H mutant (Homo sapiens, UniProt P01116, Q61H); assay: as above
T2 construct: made in house
Procedure, shortened: as §2

KRas G12C mutant = target: T3, KRas G12C mutant (Homo sapiens, UniProt P01116, G12C); assay: as above
T3 construct: made in house
Procedure, shortened: as §2

[2] = tested on: SW-620 colorectal cancer cell line (KRAS G12V); assay: Cell proliferation assay (CellTiter 96 Aqueous One); format: cell-based; conditions: Homo sapiens; SW-620, 2-4 days, 10% FBS
Procedure, shortened: as §1

[3] = tested on: PANC-1 pancreatic cancer cell line (KRAS G12D); assay: as above; format: cell-based; conditions: Homo sapiens; PANC-1, 2-4 days, 10% FBS
Procedure, shortened: as §1

[4] = with SOS, read-out: KRas G12D mutant + SOS: % inh.
[5] = without SOS, read-out: KRas G12D mutant: % inh.
[6] = with SOS, read-out: KRas Q61H mutant + SOS: % inh.
[7] = without SOS, read-out: KRas Q61H mutant: % inh.
[8] = with SOS, read-out: KRas G12C mutant + SOS: % inh.
[9] = without SOS, read-out: KRas G12C mutant: % inh.

Row | Compound | IC50 ([1]; MIA PaCa-2, MIA PaCa-2) [µM] | inhibition at 20 µM (KRas G12D mutant; [4]) [%] | inhibition at 20 µM (KRas G12D mutant; [5]) [%] | inhibition at 20 µM (KRas Q61H mutant; [6]) [%] | inhibition at 20 µM (KRas Q61H mutant; [7]) [%] | inhibition at 20 µM (KRas G12C mutant; [8]) [%] | inhibition at 20 µM (KRas G12C mutant; [9]) [%] | IC50 (KRas Q61H mutant; with SOS) [µM] | IC50 ([1]; MIA PaCa-2, MIA-PaCa-2, 2-4 days, 10% FBS) [µM] | IC50 [2] [µM] | IC50 [3] [µM] | inhibition at 10 µM [1] [%]
1 | Oc1nc(-c2cccnc2)nc2c(-c3ccccn3)csc12 [Compound 89, 7-(Pyridin-2-yl)-2-(pyridin-3-yl)thieno[3,2-d]pyrimidin-4-ol] | > 10 | 0 | 0 | 1 to 25 | 1 to 25 | 0 | 0 |  |  |  |  | 26 to 50
2 | COc1nc(-c2nccn2C)nc2c(-c3ncccc3F)csc12 [Compound 95, 7-(3-Fluoropyridin-2-yl)-4-methoxy-2-(1-methyl-1H-imidazol-2-yl)thieno[3,2-d]pyrimidine] | > 10 | 76 to 100 | 76 to 100 | 76 to 100 | 76 to 100 | 76 to 100 | 76 to 100 |  |  |  |  | 0
3 | Cn1ccc(-c2nc(O)c3scc(-c4ccccn4)c3n2)n1 [Compound 90, 2-(1-Methyl-1H-pyrazol-3-yl)-7-(pyridin-2-yl)thieno[3,2-d]pyrimidin-4-ol] | > 10 | 1 to 25 | 26 to 50 | 26 to 50 | 1 to 25 | 1 to 25 | 1 to 25 |  |  |  |  | 1 to 25
4 | Cc1cnc(-c2nc(O)c3scc(-c4ccccn4)c3n2)s1 [Compound 92, 2-(5-Methylthiazol-2-yl)-7-(pyridin-2-yl)thieno[3,2-d]pyrimidin-4-ol] | > 10 | 51 to 75 | 76 to 100 | 51 to 75 | 76 to 100 | 51 to 75 | 51 to 75 |  |  |  |  | 0
5 | COc1ccn2c(-c3nc(O)c4scc(-c5ccccn5)c4n3)ncc2c1 [Compound 85, 2-(7-Methoxyimidazo[1,5-a]pyridin-3-yl)-7-(pyridin-2-yl)thieno[3,2-d]pyrimidin-4-ol] | 5 to 10 | 26 to 50 | 51 to 75 | 26 to 50 | 51 to 75 | 1 to 25 | 26 to 50 |  |  |  |  | 51 to 75
6 | Oc1nc(-c2ccncn2)nc2c(-c3ccccn3)csc12 [Compound 88, 7-(Pyridin-2-yl)-2-(pyrimidin-4-yl)thieno[3,2-d]pyrimidin-4-ol] | > 10 | 26 to 50 | 51 to 75 | 26 to 50 | 26 to 50 | 26 to 50 | 1 to 25 |  |  |  |  | 26 to 50
7 | Cn1nccc1-c1nc(O)c2scc(-c3ccccn3)c2n1 [Compound 91, 2-(1-Methyl-1H-pyrazol-5-yl)-7-(pyridin-2-yl)thieno[3,2-d]pyrimidin-4-ol] | > 10 | 1 to 25 | 1 to 25 | 26 to 50 | 1 to 25 | 1 to 25 | 0 |  |  |  |  | 0
8 | COc1ccc2cnc(-c3nc(O)c4scc(-c5ccccn5)c4n3)n2c1 [Compound 86, 2-(6-Methoxyimidazo[1,5-a]pyridin-3-yl)-7-(pyridin-2-yl)thieno[3,2-d]pyrimidin-4-ol] | 5 to 10 | 51 to 75 | 51 to 75 | 51 to 75 | 26 to 50 | 26 to 50 | 26 to 50 |  |  |  |  | 51 to 75

Continued, in another order:

Row | IC50 ([1]; MIA PaCa-2, MIA PaCa-2) [µM] | inhibition at 20 µM (KRas G12D mutant; [4]) [%] | inhibition at 20 µM (KRas G12D mutant; [5]) [%] | inhibition at 20 µM (KRas Q61H mutant; [6]) [%] | inhibition at 20 µM (KRas Q61H mutant; [7]) [%] | inhibition at 20 µM (KRas G12C mutant; [8]) [%] | inhibition at 20 µM (KRas G12C mutant; [9]) [%] | IC50 (KRas Q61H mutant; with SOS) [µM] | IC50 ([1]; MIA PaCa-2, MIA-PaCa-2, 2-4 days, 10% FBS) [µM] | IC50 [2] [µM] | IC50 [3] [µM] | Compound | inhibition at 10 µM [1] [%]
9 | 1 to 4.99 | 76 to 100 | 76 to 100 | 76 to 100 | 76 to 100 | 76 to 100 | 76 to 100 | 5 to 10 |  |  |  | CO[C@H]1CC[C@@H](Nc2nc(-c3nccn3C)nc3sc(-c4cn(C)cn4)c(-c4ccccc4)c23)C1 (racemic) [Example 3, Rac-N-((1R,3S)-3-methoxycyclopentyl)-2-(1-methyl-1H-imidazol-2-yl)-6-(1-methyl-1H-imidazol-4-yl)-5-phenylthieno[2,3-d]pyrimidin-4-amine] | 76 to 100
10 | 5 to 10 | 76 to 100 | 76 to 100 | 51 to 75 | 51 to 75 | 51 to 75 | 51 to 75 |  |  |  |  | COCCn1ccnc1-c1nc(O)c2scc(-c3ccncc3)c2n1 [Compound 94, 2-(1-(2-Methoxyethyl)-1H-imidazol-2-yl)-7-(pyridin-4-yl)thieno[3,2-d]pyrimidin-4-ol] | 51 to 75
11 | 5 to 10 | 26 to 50 | 51 to 75 | 26 to 50 | 1 to 25 | 1 to 25 | 1 to 25 |  | > 3 | < 0.4 | < 0.4 | COCCn1c(-c2nc(O)c3scc(-c4ccccn4)c3n2)nc2ccccc21 [Compound 87, 2-(1-(2-Methoxyethyl)-1H-benzo[d]imidazol-2-yl)-7-(pyridin-2-yl)thieno[3,2-d]pyrimidin-4-ol] | 76 to 100
12 | 1 to 4.99 | 51 to 75 | 51 to 75 | 76 to 100 | 51 to 75 | 76 to 100 | 76 to 100 | 1 to 4.99 |  |  |  | CO[C@H]1C[C@@H](Nc2nc(-c3nccn3C)nc3sc(-c4cn(C)cn4)c(-c4ccccc4)c23)C1 [Example 2, N-((1s,3s)-3-methoxycyclobutyl)-2-(1-methyl-1H-imidazol-2-yl)-6-(1-methyl-1H-imidazol-4-yl)-5-phenylthieno[2,3-d]pyrimidin-4-amine] | 51 to 75
